From patent US11186564B2, “Dual NAV1.2/5HT2a inhibitors for treating CNS disorders” (Sunovion Pharmaceuticals Inc., priority 2016, dated 2021)

Biological target: T1, recombinant human serotonin receptor 5-HT2A (Homo sapiens, UniProt P28223)
T1 construct: expressed in transfected cells; method B: loaded with Ca2+ dye
Assay: 5-HT2A antagonist Ca2+ assay in CHO-K1 cells (method A aequorin luminescence / method B FLIPR fluorescence)
Type: cell-based
Conditions: antagonist mode vs EC80 of reference agonist, method A or B, read-out: 5HT2A IC50
From the text: The methods utilized to assess the inhibitory activity of compounds on recombinant human serotonin receptor 5-HT2A was based upon previously published approaches [Jerman J C, Brough S J, Gager T, Wood M, Coldwell M C, Smart D, Middlemiss D N. Pharmacological characterisation of human 5-HT2 receptor subtypes. European Journal of Pharmacology 2001 Feb. 23; 414(1):23-30; Le Poul E, Hisada S, Mizuguchi Y, Dupriez V J, Burgeon E, Detheux M. Adaptation of aequorin functional assay to high throughput screening. J Biomolecular Screening 2002 February; 7(1):57-65.] The 5-HT2A receptor signals through Gq-phospholipase signaling cascade, which leads to a transient increase in free intracellular […] concentration. Both 5-HT2A assay methods rely upon monitoring these changes in Ca^2+ concentration.
In method A [Le Poul E, Hisada S, Mizuguchi Y, Dupriez V J, Burgeon E, Detheux M. (2002)], CHO-K1 cells engineered to stably co-express both recombinant human 5-HT2A and mitochondrial apoaequorin are used. […] For agonist testing, 50 microliters of cell suspension is mixed with 50 microliters of a solution containing test compound or reference agonist in a 96-well standard geometry microtiter plate. The resulting emission of light was recorded using a Hamamatsu Functional Drug Screening System 6000 (FDSS 6000) luminometer. For antagonist testing, 100 microliters of the solution of reference agonist (to yield an agonist concentration, EC80, sufficient to cause the cells to generate an 80% maximal luminescence response in the absence of any antagonist) is injected into the mix of cells and test compound, 15 minutes after the first injection. The resulting emission of light is recorded using Hamamatsu FDSS 6000 luminometer. IC50 values are calculated (from compound concentration dependent inhibition of agonist-induced 5-HT2A-dependent light emission) by non-linear least squares regression of the data (percent inhibition) onto equation (1) above.
In method B [Jerman J C, Brough S J, Gager T, Wood M, Coldwell M C, Smart D, Middlemiss D N. (2001)], CHO-K1 cells which had been engineered to stably co-express recombinant human 5-HT2A are used in assay done similarly to method A. In method B, the cells are loaded with a fluorogenic Ca^2+ indicator dye by pre-incubation. Addition of the reference agonist serotonin causes a transient increase in fluorescence in a suspension of the loaded cells, which can be detected using the Molecular Devices fluorometric imaging plate reader (FLIPR), a high-throughput platform for 96-well cell-based assays. Addition of test compounds that are 5-HT2A antagonists, prior to the addition of the agonist (to yield an agonist concentration, EC80, sufficient to cause the cells to generate an 80% maximal fluorescence response in the absence of any antagonist), reduces the amount of fluorescence detected by the FLIPR upon agonist addition. IC50 values are calculated (from compound concentration dependent inhibition of agonist-induced 5-HT2A-dependent fluorescence) by non-linear least squares regression of the data (percent inhibition) onto equation (1) above.

T1 sequence (P28223 whole entry): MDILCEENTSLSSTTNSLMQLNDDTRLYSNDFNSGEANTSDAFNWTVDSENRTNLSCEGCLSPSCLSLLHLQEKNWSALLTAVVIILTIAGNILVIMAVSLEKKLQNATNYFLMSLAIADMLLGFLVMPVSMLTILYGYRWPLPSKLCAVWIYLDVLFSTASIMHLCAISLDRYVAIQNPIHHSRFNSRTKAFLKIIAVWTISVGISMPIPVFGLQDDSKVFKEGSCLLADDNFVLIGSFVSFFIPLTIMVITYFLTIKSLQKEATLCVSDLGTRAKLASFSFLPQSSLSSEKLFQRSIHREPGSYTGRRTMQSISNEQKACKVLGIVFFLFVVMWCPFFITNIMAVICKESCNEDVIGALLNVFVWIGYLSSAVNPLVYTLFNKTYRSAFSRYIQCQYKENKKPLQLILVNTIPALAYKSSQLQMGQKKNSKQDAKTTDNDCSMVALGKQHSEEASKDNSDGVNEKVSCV

Row | SMILES | IC50 [nM]
1 | Fc1ccc(O[C@H]2CCN(CC3CCc4ncccc43)C2)cc1 (stereo partly drawn) [Example 4, 5-(((S)-3-(4-fluorophenoxy)pyrrolidin-1-yl)methyl)-6,7-dihydro-5H-cyclopenta[b]pyridine] | 1450
2 | O=C1CC2(CN(CC3CCc4ccccc43)C2)Oc2ccccc21 (centres unmarked) [Example 386, 1-((2,3-dihydro-1H-inden-1-yl)methyl)spiro[azetidine-3,2′-chroman]-4′-one] | 3760
3 | Fc1ccc(O[C@H]2CCN(CC3CCc4cnccc43)C2)cc1 (stereo partly drawn) [Example 2, 5-(((S)-3-(4-fluorophenoxy)pyrrolidin-1-yl)methyl)-6,7-dihydro-5H-cyclopenta[c]pyridine] | 1250
4 | c1ccc(OCCN2CCC(Oc3ccc4cccnc4c3)CC2)cc1 [Example 231, 7-((1-(2-phenoxyethyl)piperidin-4-yl)oxy)quinoline] | 790
5 | c1ccc2c(c1)CCC1(CCN(CC3CCc4cnccc43)CC1)O2 (centres unmarked) [Example 408, 1′-((6,7-dihydro-5H-cyclopenta[c]pyridin-5-yl)methyl)spiro[chromane-2,4′-piperidine]] | 740
6 | O[C@H](COC1CCCCC1)CN1CCC(Oc2ccccc2)CC1 [Example 233, (S)-1-(cyclohexyloxy)-3-(4-phenoxypiperidin-1-yl)propan-2-ol] | 50
7 | OC(COC1CCCCC1)CN1CCC2(CCCN2c2ccccc2)CC1 (centres unmarked) [Example 355, 1-(cyclohexyloxy)-3-(1-phenyl-1,8-diazaspiro[4.5]decan-8-yl)propan-2-ol] | > 16700
8 | COc1ccccc1O[C@@H]1CCN(CCN2CCc3ccccc3C2=O)[C@H]1C [Example 17, 2-(2-((2S,3R)-3-(2-methoxyphenoxy)-2-methylpyrrolidin-1-yl)ethyl)-3,4-dihydroisoquinolin-1(2H)-one] | 400
9 | c1ccc(N2[C@@H]3C[C@H]2CN(CC2CCc4ccccc42)C3)cc1 (stereo partly drawn) [Example 293, (1R,5S)-3-((2,3-dihydro-1H-inden-1-yl)methyl)-6-phenyl-3,6-diazabicyclo[3.1.1]heptane] | 1020
10 | c1ccc(N2C[C@@H]3C[C@H]2CCN3CC2COCc3ccccc32)cc1 (stereo partly drawn) [Example 322, (1S,5R)-2-(isochroman-4-ylmethyl)-6-phenyl-2,6-diazabicyclo[3.2.1]octane] | > 3160
11 | COc1ccc2c(c1)[C@H](CN1C[C@@H]3CC[C@H]1CN3c1ccccc1)CC2 (single isomer, unassigned) [Compound 312] | 430
12 | COc1cccc(O[C@H]2CCN(CCN3CCc4ccccc4C3=O)C2)c1 [Example 22, (S)-2-(2-(3-(3-methoxyphenoxy)pyrrolidin-1-yl)ethyl)-3,4-dihydroisoquinolin-1(2H)-one] | 2340
13 | OC(COc1ccccc1)CN1C[C@@H]2C[C@H](C1)N(c1ccccc1)C2 (stereo partly drawn) [Example 334, 1-phenoxy-3-((1S,5R)-6-phenyl-3,6-diazabicyclo[3.2.1]octan-3-yl)propan-2-ol] | > 16700
14 | c1ccc2c(c1)CC1(CCN(CC3Cc4cccnc4C3)CC1)O2 (centres unmarked) [Example 397, 1′-((6,7-dihydro-5H-cyclopenta[b]pyridin-6-yl)methyl)-3H-spiro[benzofuran-2,4′-piperidine]] | 2760
15 | c1ccc2c(c1)CC1(CCN(CC3CCc4cccnc43)CC1)O2 (centres unmarked) [Example 394, 1′-((6,7-dihydro-5H-cyclopenta[b]pyridin-7-yl)methyl)-3H-spiro[benzofuran-2,4′-piperidine]] | > 10900
16 | COCc1cccc(OC2CCN(CC3CCc4ccc(OC)cc43)CC2)c1 (centres unmarked) [Example 111, 1-((6-methoxy-2,3-dihydro-1H-inden-1-yl)methyl)-4-(3-(methoxymethyl)phenoxy)piperidine] | 210
17 | c1ccc(N2C[C@@H]3C[C@H]2CCN3CCC2CCc3cccnc32)cc1 (stereo partly drawn) [Example 323, 7-(2-((1S,5R)-6-phenyl-2,6-diazabicyclo[3.2.1]octan-2-yl)ethyl)-6,7-dihydro-5H-cyclopenta[b]pyridine] | > 3160
18 | Fc1ccccc1OC1CCN(CC2COc3ccccc32)CC1 (centres unmarked) [Example 132, 1-((2,3-dihydrobenzofuran-3-yl)methyl)-4-(2-fluorophenoxy)piperidine] | 40

Row | SMILES | IC50 [nM]
19 | COc1ccccc1OC1CCN(CC2(C)Cc3cccnc3C2)CC1 (centres unmarked) [Example 151, 6-((4-(2-methoxyphenoxy)piperidin-1-yl)methyl)-6-methyl-6,7-dihydro-5H-cyclopenta[b]pyridine] | > 10000
20 | OC(CO[C@H]1CCCc2ccccc21)CN1CC[C@@H](Oc2ccc(F)cc2)C1 (stereo partly drawn) [Example 48, 1-((R)-3-(4-fluorophenoxy)pyrrolidin-1-yl)-3-(((S)-1,2,3,4-tetrahydronaphthalen-1-yl)oxy)propan-2-ol] | 2220
21 | C[C@H]1C[C@@]2(CCc3ccccc3O2)CCN1CCN1CCc2ccccc2C1=O [Example 424, 2-(2-((2R,2′S)-2′-methylspiro[chromane-2,4′-piperidin]-1′-yl)ethyl)-3,4-dihydroisoquinolin-1(2H)-one] | 50
22 | COc1ccccc1O[C@H]1CCN(CCN2CCc3ccccc3C2=O)[C@H]1C [Example 19, 2-(2-((2S,3S)-3-(2-methoxyphenoxy)-2-methylpyrrolidin-1-yl)ethyl)-3,4-dihydroisoquinolin-1(2H)-one] | 560
23 | O=C1c2ccccc2CCN1CCN1CC[C@@H](Oc2cccnc2)C1 [Example 23, (R)-2-(2-(3-(pyridin-3-yloxy)pyrrolidin-1-yl)ethyl)-3,4-dihydroisoquinolin-1(2H)-one] | > 16700
24 | OC(CO[C@H]1CCc2ccccc21)CN1CC[C@H](Oc2ccc(F)cc2)C1 (stereo partly drawn) [Example 43, 1-(((S)-2,3-dihydro-1H-inden-1-yl)oxy)-3-((S)-3-(4-fluorophenoxy)pyrrolidin-1-yl)propan-2-ol] | 2080
25 | Fc1ccc(O[C@@H]2CCN(CC3CCc4cnccc43)C2)cc1 (stereo partly drawn) [Example 1, 5-(((R)-3-(4-fluorophenoxy)pyrrolidin-1-yl)methyl)-6,7-dihydro-5H-cyclopenta[c]pyridine] | 2300
26 | OC(COc1ccccc1)CN1C[C@H]2CC[C@@H](C1)N2c1ccccc1 (stereo partly drawn) [Example 302, 1-phenoxy-3-((1R,5S)-8-phenyl-3,8-diazabicyclo[3.2.1]octan-3-yl)propan-2-ol] | > 2700
27 | COc1ccccc1O[C@@H]1CCN(CC2Cc3ccccc3C2)C[C@H]1C [Example 145, (3R,4R)-1-((2,3-dihydro-1H-inden-2-yl)methyl)-4-(2-methoxyphenoxy)-3-methylpiperidine] | 10
28 | O=C1c2ccccc2CCN1CCN1CC[C@@H]2C[C@H]1CN2c1ccccc1 [Example 324, 2-(2-((1S,5R)-6-phenyl-2,6-diazabicyclo[3.2.1]octan-2-yl)ethyl)-3,4-dihydroisoquinolin-1(2H)-one] | > 3160
29 | c1ccc(CCN2C[C@@H]3C[C@H](C2)N(c2ccccc2)C3)cc1 [Example 330, (1S,5R)-3-phenethyl-6-phenyl-3,6-diazabicyclo[3.2.1]octane] | > 16700
30 | O=C1c2ccccc2CCN1CCN1CCCCC(Oc2ccc(F)cc2)C1 (centres unmarked) [Example 280, 2-(2-(3-(4-fluorophenoxy)azepan-1-yl)ethyl)-3,4-dihydroisoquinolin-1(2H)-one] | 4890
31 | COc1cccc(OC2CCN(CC3Cc4cccnc4C3)CC2)c1 (centres unmarked) [Example 153, 6-((4-(3-methoxyphenoxy)piperidin-1-yl)methyl)-6,7-dihydro-5H-cyclopenta[b]pyridine] | 760
32 | c1ccc(CCN2CCC(Oc3ccccc3)CC2)cc1 [Example 214, 1-phenethyl-4-phenoxypiperidine] | 40
33 | OC(CO[C@H]1CCCc2ccccc21)CN1CC[C@H](Oc2ccc(F)cc2)C1 (stereo partly drawn) [Example 49, 1-((S)-3-(4-fluorophenoxy)pyrrolidin-1-yl)-3-(((S)-1,2,3,4-tetrahydronaphthalen-1-yl)oxy)propan-2-ol] | 2550
34 | O=C1c2ccccc2CCN1CCN1CC[C@H](Oc2cccnc2)C1 [Example 24, (S)-2-(2-(3-(pyridin-3-yloxy)pyrrolidin-1-yl)ethyl)-3,4-dihydroisoquinolin-1(2H)-one] | > 16700
35 | COc1ccc(O[C@H]2CCN(CCN3CCc4ccccc4C3=O)C2)cc1 [Example 28, (S)-2-(2-(3-(4-methoxyphenoxy)pyrrolidin-1-yl)ethyl)-3,4-dihydroisoquinolin-1(2H)-one] | 10000
